Literature values as cited in US6617125B2, “Compositions for enhanced catalyzed reporter deposition” (PerkinElmer Life Sciences, Inc., priority 2001, dated 2003).

Columns and labels:
[1] = tested on: HRP; details: substrate guaiacol; Whitaker and Tappel 1962
[2] = target: T1, HRP (Armoracia rusticana, UniProt P00433)
T1 sequence (P00433 31-338 limits assumed): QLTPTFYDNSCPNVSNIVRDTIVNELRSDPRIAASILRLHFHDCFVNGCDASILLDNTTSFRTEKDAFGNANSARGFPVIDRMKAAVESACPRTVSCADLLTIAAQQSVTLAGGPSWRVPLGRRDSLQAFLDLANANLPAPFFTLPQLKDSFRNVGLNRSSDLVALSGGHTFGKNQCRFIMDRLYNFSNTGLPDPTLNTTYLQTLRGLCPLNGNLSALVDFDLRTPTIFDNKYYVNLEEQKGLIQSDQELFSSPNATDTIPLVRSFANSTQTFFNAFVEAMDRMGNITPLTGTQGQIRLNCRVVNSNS

| Compound | enhancement of the oxidation of guaiacol [1] | effect on the oxidation of 4-chloro-1-naphthol ([2]; substrate 4-chloro-1-naphthol, de Jong et al. 1985) | enhancement of the oxidation of p-phenylenediamine-pyrocatechol ([2]; substrate combination p-phenylenediamine-pyrocatechol, de Jong et al. 1985) | enhancement of the oxidation of diaminobenzidine ([2]; substrate diaminobenzidine, de Jong et al. 1985) | effect on substrates which form covalently depositable products ([2]; substrates which form covalently depositable products) |
| --- | --- | --- | --- | --- | --- |
| [Cl-].[K+] [KCl] | enhance | – | – | – | – |
| O=S(=O)([O-])[O-].[Na+].[Na+] [Na2SO4] | enhance | – | – | – | – |
| [Cl-].[Na+] [NaCl] | enhance | – | – | – | – |
| c1c[nH]cn1 [imidazole] | – | no effect | two | approximately four | no effect |
